Broadly, the GI50 is the concentration at which growth is held to half of that of the control.

Consider eleven compounds from ChEMBL document CHEMBL1201862, “PubChem BioAssay data set” (2004).

Test systems include SK-MEL-5; LOX IMVI; UO-31; ACHN; SK-MEL-28; DU-145; A498; M14; CCRF-CEM; MDA-MB-231; RXF 393; SF-295; MDA-MB-435; BT-549; OVCAR-4; HOP-62; T47D; SK-MEL-2; SK-OV-3.
Holding throughout (assay): DTP human tumour cell line panel, 48 h

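These data come from cells grown in 96-well plates and exposed to compound for 48 hours at five concentrations. GI50 is the concentration that inhibits growth by half.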 The source made the active and inactive calls. No stated cut-off is given here; in the data, active = GI50 up to about 1.1 µM and inactive = higher.

With `CC(C)c1c(O)c(O)c2c(c1O)C(=O)C(O)=C1C(C)(C)CCC[C@@]12C`, the GI50 in the assay on SK-MEL-5 is 2.6 µM (inactive); in the assay on LOX IMVI, 4.32 µM (inactive); in the assay on UO-31, 2.32 µM (inactive); with ACHN, 2.96 µM (inactive); in the assay on SK-MEL-28 it was 5.85 µM (inactive); with DU-145, 4.13 µM (inactive). Besides, the GI50 was 3.84 µM (inactive) in the assay on A498; 5.47 µM (inactive) in the assay on M14; 3.48 µM (inactive) in the assay on CCRF-CEM; 2.92 µM (inactive) in the assay on MDA-MB-231; 2.86 µM (inactive) in the assay on RXF 393; 2.96 µM (inactive) in the assay with SF-295. For the same compound, the GI50 with MDA-MB-435 was 2.96 µM (inactive); in the assay with BT-549, 3.29 µM (inactive); with OVCAR-4, 3.26 µM (inactive); with HOP-62, 8.61 µM (inactive); in the assay with T47D, 3.24 µM (inactive); in the assay with SK-MEL-2, 3.76 µM (inactive). Moreover, in the assay on SK-OV-3, the GI50 was 3.81 µM (inactive).

As to `CCCCCCNC(=O)c1cc(CCc2cc(O)ccc2O)ccc1O`, the GI50 in the assay on SK-MEL-5 was 4.62 µM (inactive); in the assay on LOX IMVI it was 4.67 µM (inactive); in the assay on UO-31 it was 1.55 µM (inactive); in the assay on ACHN, 2.66 µM (inactive); in the assay on SK-MEL-28, 2.74 µM (inactive); with DU-145, 6.78 µM (inactive). The GI50 is 4.24 µM (inactive) in the assay on A498; 6.05 µM (inactive) with M14; 1.92 µM (inactive) with CCRF-CEM; 2.25 µM (inactive) with MDA-MB-231; 1.8 µM (inactive) in the assay on RXF 393; 14.1 µM (inactive) with SF-295. Also, the GI50 was 3.61 µM (inactive) in the assay with MDA-MB-435; 1.94 µM (inactive) with BT-549; 2.47 µM (inactive) with OVCAR-4; 6.24 µM (inactive) in the assay on HOP-62; 1.85 µM (inactive) in the assay on T47D; 2.74 µM (inactive) with SK-MEL-2. For the same compound, the GI50 with SK-OV-3 is 9.95 µM (inactive).

Consider `COc1ccc(/C=C/C(=O)c2cccc(C(=O)/C=C/c3ccc(OC)c(OC)c3)n2)cc1OC`, for which the GI50 is 98.4 µM (inactive) with SK-MEL-5; 2.02 µM (inactive) in the assay on LOX IMVI; 16.4 µM (inactive) in the assay with UO-31; 25.8 µM (inactive) with ACHN; 15.8 µM (inactive) with SK-MEL-28; > 100 µM (inactive) with DU-145. Also, the GI50 with A498 was > 91.2 µM (inactive); with M14 it was 32.7 µM (inactive); in the assay on CCRF-CEM it was 1.05 µM (active); in the assay on MDA-MB-231, 25.4 µM (inactive); with RXF 393, 40.4 µM (inactive); in the assay on SF-295, > 73.8 µM (inactive). The GI50 is > 50.9 µM (inactive) with MDA-MB-435; 6.15 µM (inactive) in the assay on BT-549; > 100 µM (inactive) in the assay with OVCAR-4; > 89.7 µM (inactive) in the assay on HOP-62; > 49.3 µM (inactive) in the assay on T47D; > 100 µM (inactive) in the assay on SK-MEL-2. In the assay with SK-OV-3, the GI50 was > 100 µM (inactive).

Take `O=C1N[C@@H](c2c[nH]c3cc(Br)ccc23)C(=O)N[C@H]1c1c[nH]c2cc(Br)ccc12`: the GI50 in the assay on SK-MEL-5, with LOX IMVI, in the assay with UO-31, in the assay on ACHN, in the assay on SK-MEL-28 and in the assay on DU-145 was > 100 µM (inactive) in each case. For the same compound, the GI50 in the assay on A498 is > 100 µM (inactive); in the assay on M14, > 100 µM (inactive); in the assay on CCRF-CEM, > 100 µM (inactive); in the assay on MDA-MB-231, 17.1 µM (inactive); in the assay with RXF 393, > 100 µM (inactive); in the assay on SF-295, > 100 µM (inactive). The GI50 in the assay with MDA-MB-435, with BT-549, with OVCAR-4, in the assay on HOP-62, with T47D and with SK-MEL-2 was > 100 µM (inactive) in each case. Besides, in the assay on SK-OV-3, the GI50 is 35.4 µM (inactive).

Consider `CC(O)c1cc2c(s1)C(=O)c1c(C(C)O)csc1C2=O` (configuration not stated), for which the GI50 in the assay with SK-MEL-5 is 0.0233 µM (active); in the assay on LOX IMVI, 0.075 µM (active); with UO-31, 0.316 µM (active); with ACHN, 0.261 µM (active); in the assay on SK-MEL-28 it was 0.185 µM (active); with DU-145, 0.119 µM (active). Also, the GI50 with A498 was 0.21 µM (active); with M14, 0.126 µM (active); in the assay with CCRF-CEM, 0.173 µM (active); with MDA-MB-231 it was 0.063 µM (active); in the assay with RXF 393 it was 0.187 µM (active); in the assay on SF-295, 0.123 µM (active). For the same compound, the GI50 was 0.0252 µM (active) with MDA-MB-435; 0.19 µM (active) with BT-549; 0.177 µM (active) in the assay on OVCAR-4; 0.199 µM (active) in the assay on HOP-62; 0.167 µM (active) with T47D; 0.148 µM (active) with SK-MEL-2. The GI50 in the assay on SK-OV-3 is 0.401 µM (active).

Take `O=C1c2ccccc2C(=O)c2oc(Br)cc21`: the GI50 in the assay on SK-MEL-5 is 0.144 µM (active); with LOX IMVI, 0.429 µM (active); with UO-31, 1.47 µM (inactive); in the assay with ACHN, 1.78 µM (inactive); with SK-MEL-28, 0.34 µM (active); with DU-145 it was 0.214 µM (active). The GI50 in the assay with A498 was 1.94 µM (inactive); with M14 it was 0.161 µM (active); in the assay on CCRF-CEM it was 1.95 µM (inactive); with MDA-MB-231, 2.65 µM (inactive); in the assay with RXF 393 it was 1.49 µM (inactive); in the assay with SF-295 it was 0.269 µM (active). The GI50 in the assay with MDA-MB-435 is 0.159 µM (active); in the assay with BT-549 it was 1.16 µM (inactive); with OVCAR-4, 1.87 µM (inactive); with HOP-62, 1.69 µM (inactive); in the assay with T47D, 1.73 µM (inactive); in the assay with SK-MEL-2, 0.578 µM (active). Moreover, the GI50 in the assay with SK-OV-3 is 2.14 µM (inactive).

`O=C(O)COCC(=O)N(CCOCCN(Cc1ccccc1)C(=O)COCC(=O)O)Cc1ccccc1`: the GI50 with SK-MEL-5, in the assay on LOX IMVI, in the assay on ACHN, in the assay with SK-MEL-28, in the assay on DU-145 and with A498 was > 100 µM (inactive) each time. For the same compound, the GI50 in the assay on M14, in the assay on CCRF-CEM, with MDA-MB-231, with RXF 393, with SF-295 and with MDA-MB-435 was > 100 µM (inactive) throughout. Also, the GI50 in the assay with BT-549, in the assay with HOP-62, in the assay on T47D, in the assay on SK-MEL-2 and in the assay on SK-OV-3 was > 100 µM (inactive) in each case.

Consider `Brc1ccc(C2C3CSc4ccccc4C3=NN2c2ccccc2)cc1` (configuration not stated), for which the GI50 with SK-MEL-5 was 31.8 µM (inactive); in the assay on LOX IMVI, 77.8 µM (inactive); in the assay with UO-31, 94.8 µM (inactive); with SK-MEL-28, 67.5 µM (inactive); with DU-145, > 100 µM (inactive); in the assay with A498, > 100 µM (inactive). In addition, the GI50 in the assay on M14 is > 100 µM (inactive); in the assay with CCRF-CEM it was 34.8 µM (inactive); in the assay with MDA-MB-231, > 100 µM (inactive); with RXF 393, > 100 µM (inactive); in the assay on MDA-MB-435, > 100 µM (inactive); with BT-549, > 100 µM (inactive). Also, the GI50 in the assay on OVCAR-4 is 7.62 µM (inactive); in the assay with HOP-62 it was > 100 µM (inactive); in the assay on T47D, 14.3 µM (inactive); in the assay with SK-MEL-2 it was > 100 µM (inactive); with SK-OV-3, 82.8 µM (inactive).

Regarding `CCCCCC(/C=N/N)C(O)(C(F)(F)F)C(F)(F)F` (configuration not stated), the GI50 in the assay on SK-MEL-5 was 1.77 µM (inactive); in the assay on LOX IMVI, 3.32 µM (inactive); with ACHN, 4.15 µM (inactive); with SK-MEL-28, 2.64 µM (inactive); in the assay with DU-145, 1.9 µM (inactive); in the assay on A498, 2.44 µM (inactive). Also, the GI50 in the assay on M14 is 4.47 µM (inactive); with CCRF-CEM it was > 10 µM (inactive); in the assay with MDA-MB-231 it was 4.07 µM (inactive); with RXF 393, 7.28 µM (inactive); in the assay with SF-295, 3.13 µM (inactive); in the assay with MDA-MB-435, 3.53 µM (inactive). Also, the GI50 in the assay on BT-549 is 4.04 µM (inactive); with OVCAR-4, 5.35 µM (inactive); in the assay on HOP-62, 4.78 µM (inactive); with T47D, 7.08 µM (inactive); with SK-MEL-2, 3.37 µM (inactive); with SK-OV-3, 5.06 µM (inactive).

Consider `O=C(NNC(=O)c1cc2ccccc2[nH]1)c1cc2ccccc2[nH]1`, for which the GI50 in the assay with SK-MEL-5, in the assay on LOX IMVI, in the assay with UO-31, with SK-MEL-28, in the assay with DU-145 and with A498 was > 100 µM (inactive) throughout. Further, the GI50 in the assay with M14, in the assay with CCRF-CEM, in the assay with MDA-MB-231, with RXF 393, in the assay on SF-295 and in the assay on MDA-MB-435 was > 100 µM (inactive) each time. Moreover, the GI50 in the assay with BT-549, with OVCAR-4, in the assay on HOP-62, in the assay on T47D, with SK-MEL-2 and in the assay on SK-OV-3 was > 100 µM (inactive) in each case.

With `O=S(=O)(c1cnccc1N1CCN(CCO)CC1)N1CCCC1`, the GI50 in the assay on SK-MEL-5, in the assay with LOX IMVI, in the assay with UO-31, in the assay with ACHN, in the assay with SK-MEL-28 and in the assay on DU-145 was > 100 µM (inactive) each time. Also, the GI50 in the assay on A498, in the assay on M14, with MDA-MB-231, in the assay on RXF 393, in the assay on SF-295 and in the assay on MDA-MB-435 was > 100 µM (inactive) throughout. In addition, the GI50 in the assay on BT-549, in the assay with OVCAR-4, in the assay with HOP-62, in the assay with T47D, in the assay on SK-MEL-2 and in the assay on SK-OV-3 was > 100 µM (inactive) throughout.
